Measured values taken from patent US20240299405A1, “APPLICATION OF ATP POTASSIUM CHANNEL MODIFIER IN PREPARATION OF ANTI-DIABETIC NEPHROPATHY DRUG” (HANGZHOU QIAN BIOTECHNOLOGY LTD, priority 2020, published 2024).

What was measured:
[1] = system: STZ diabetic rat models (diabetic nephropathy); test: Urine microalbumin (mALB) by ELISA in STZ plus high-fat diet diabetic nephropathy rat model; format: in vivo, SD rats; conditions: for mALB, urine microalbumin value of each KATP agonist: week 30, mean ± SE; for effect on reducing the amount of microalbumin in diabetic nephropathy urine compared with the negative control group: week 30, p<0.05; for mALB, 20 Week: week 20, mean ± SE; for mALB, 24 Week: week 24, mean ± SE; for mALB, 26 Week: week 26, mean ± SE; for mALB, 32 Week: week 32, mean ± SE; for mALB, 35 Week: week 35, mean ± SE
Excerpt: STZ substantially and excessively damages islet-β cells through chemical toxicity (Saini K, Thompson C, Winterford C M, Walker N I, Cameron D P. Streptozotocin at low doses induces apoptosis and at high doses causes necrosis in a murine pancreatic b cell line, INS1[J]. International Union of Biochemistry and Molecular Biology Life. 1996, 39(6): 1229-1236). The pathophysiological characteristics of STZ modeled rats are relatively close to that of humans. Their blood can be collected repeatedly to monitor index changes and enough kidney tissues can be obtained for subsequent tissue section analysis. Therefore, STZ diabetic rat models are used. In addition, due to the high toxicity of STZ, multiple injections at low doses can establish better models. Keep feeding a high-fat diet daily after modeling until the end of the experiment. A high-fat diet can cause diabetic nephropathy in STZ rats.
Urine microalbumin (mALB) is an early diagnostic index of kidney injury, and mALB was used as an indicator to test whether rats entered diabetic nephropathy, and rat weight and blood glucose levels were used to observe whether the model was successful.
mALB is one of the most important monitoring indicators of nephropathy. […] Since the measurement results of mALB in humans and mice are different. The difference between the dosing group (group C) and the negative control group (group B) is used to judge whether the test results of this experiment are valid. The normal mALB value in this experiment was only used as a reference value, which is using the data of group A (blank control group).
At the beginning of the experiment, urine and blood of all rats were collected for the detection of the required indicators, and the initial indicators were used as a timely reference for the disease progression of the rats. After the start of the experiment, all rats were sampled with the Elisa kit every other month to detect mALB and other data.
Rat urine collection: urine is collected by metabolic cage, urine is collected after 24 h, the total amount of urine is recorded, and the urine output at 24 h is calculated. Take 1 ml of urine, centrifuge and take the supernatant and store at −80° C. for testing.
A 24 h urine sample was collected from rats for testing, and the collected sample was centrifuged at 15 min, centrifuged at 4° C. at 1000 ref for 20 min, and the mALB value was detected by supernatant or stored at −20° C.
Before starting the experiment, you need to do the following: • (1) Place all reagents (including specimens) in the room and equilibrate to room temperature (18-25° C.) before use. • (2) The standard is diluted to the corresponding gradient. Take a bottle of standard, add 1 mL of standard diluent (at this time the concentration is 1000 μg/mL), mix gently, let stand at room temperature for 10 minutes, and gently shake every 2 minutes to mix. After mixing, dilute it to 100 μg/mL, take 4 EP tubes (add 600 μL of standard dilute to each EP tube), triple dilute the standard from a concentration of 100 μg/mL to 33.33 μg/mL, 11.11 μg/mL, 3.70 μg/mL, 1.23 μg/mL, and use the standard dilution as a blank well (0 μg/mL). • (3) Working solution of the detection solution A: add 150 μL of reagent dilution to the mother liquor of the detection solution A, stand at room temperature for 10 minutes, and shake gently every 2 minutes to have a well-mix. Before use, dilute with the detection diluent A at 1:100, and mix the solution well with the shaker. Calculate the required amount at 50 μL/well for dilution before use (0.1-0.2 mL more needs to be prepared). • (4) Working solution of the detection solution B: Detection solution B needs to be centrifuged at 5000 ref for 10 s before each use to deposition the liquid from the tube wall or cap to the bottom of the tube. Immediately before use, dilute with the detection diluent B at 1:100, and mix them well with the shaker. […]

STZ diabetic rats [2] = conditions: rat, in vivo, 50 mg/kg/day
Protocol: (§1) Due to the large body surface area of rats, the doses of groups C, D and E were equivalent to 0.095 mg/kg, 0.95 mg/kg, and 9.5 mg/kg in humans (according to the literature: Anroop B Nair, Shery Jacob. A simple practice guide for dose conversion between animals and human. Journal of Basic and Clinical Pharmacy. 2016, 7(2):27-31.), with 95% binding capacity to albumin, similar to humans. All groups of rats were fed high-fat feed.
In addition, rats in the high-dose E group all died before diabetic nephropathy was modeled, of which 13 died in the first four months and the other 5 died in the fifth and sixth months. It was speculated that the death may be related to the high blood glucose elevation of diabetic rats. Therefore, the statistics of Table 1, FIG. 1, FIG. 2, FIG. 3 and FIG. 5 are not included those rats in group E.

STZ diabetic rats [3] = test: Glomerular filtration rate in STZ diabetic rats; format: in vivo, SD rats; conditions: groups C and D (0.5 and 5 mg/kg) versus group B
Protocol: as §1

rat kidney = test: HE staining of rat kidney sections (glomeruli, tubules); format: in vivo, SD rats; conditions: 5 mg/kg (medium-dose) group, six-month rat, renal HE×400
Excerpt: In addition, clinically patients with nephropathy will have an increase in glomerular volume and a higher number of cells in the early stage, and with the progression of the disease, there will be widening of the mesangial area, the mesangial cells and mesangial stroma will increase, and the tubular epithelial cells will have cell edema, that is, often called granular degeneration or vacuolar degeneration, tubulointerstitial fibrosis and other symptoms. In this experiment, the glomerular volume changes of rat kidney sections were observed by HE staining, and the results of renal staining sections in each experimental group are shown in FIG. 5.

[4] = group C, 0.5 mg/kg per day gavage
[5] = group D, 5 mg/kg per day gavage

For `CCC1NC(=O)c2cc(S(N)(=O)=O)c(Cl)cc2N1` (centres unmarked) [quinethazone], the “mALB, urine microalbumin value of each KATP agonist” value (“mALB, urine microalbumin value” below) ([1]; 1 mg/kg group) was 114.6 ± 45.3 µg/mL.
In the case of `COC(=O)C1=C(C)NC(C)=C(C(=O)OCCN(C)Cc2ccccc2)C1c1cccc([N+](=O)[O-])c1` (centres unmarked) [nicardipine], the “mALB, urine microalbumin value” value ([1]; 5 mg/kg group) is reported as 55.4 ± 25.6 µg/mL.
In the case of `Nc1cc(N2CCCCC2)nc(N)[n+]1[O-]` [minoxidil], the “mALB, urine microalbumin value” value ([1]; 0.5 mg/kg group) is reported as 130.4 ± 60.3 µg/mL.
For `O=C(NCCO[N+](=O)[O-])c1cccnc1` [Nicorandil], the “mALB, urine microalbumin value” value ([1]; 0.5 mg/kg group) was 78.2 ± 35.1 µg/mL and the “effect on reducing the amount of microalbumin in diabetic nephropathy urine compared with the negative control group” value (“effect on reducing the amount” below) [1] was “significant effect”.
In the case of `CC1(C)Oc2ccc(C#N)cc2C(N2CCCC2=O)C1O` (centres unmarked) [Cromakalim], the “mALB, urine microalbumin value” value ([1]; 1 mg/kg group) is reported as 77.6 ± 45.6 µg/mL and the “effect on reducing the amount” value [1] is reported as “significant effect”.
For `C/N=C(/S)[C@]1(c2cccnc2)CCCC[S@@+]1[O-]` [Aprikalim], the “mALB, urine microalbumin value” value ([1]; 1 mg/kg group) was 59.7 ± 25.4 µg/mL and the “effect on reducing the amount” value [1] was “significant effect”.
For `CC1=Nc2ccc(Cl)cc2S(=O)(=O)N1` [Diazoxide, 7-chloro-3-methyl-2-hydro-1,2,4-benzothiadiazine 1,1-dioxide], the death of rats (STZ diabetic rats [2]) was “all died”, the “effect on the increase of compensatory glomerular filtration rate” value (STZ diabetic rats [3]) was “could reduce the increase of glomerular filtration rate” and the “progression of diabetic nephropathy” value ([1]; 0.5 mg/kg) was “can delay the progression of diabetic nephropathy”. For the same compound, the “mALB, 20 Week” value [1, 4] was 15.6 ± 2.9 µg/mL, the “mALB, 24 Week” value ([1]; group C, 0.5 mg/kg per day gavage, 0.5 mg/kg/day) was 18.2 ± 4.7 µg/mL and the “mALB, 26 Week” value [1, 4] was 28.4 ± 10.8 µg/mL. For the same compound, the “mALB, 32 Week” value [1, 4] was 149.5 ± 50.3 µg/mL, the “mALB, 35 Week” value [1, 4] was 108.0 ± 33.7 µg/mL and the “mALB, 20 Week” value [1, 5] was 14.5 ± 3.0 µg/mL. For the same compound, the “mALB, 24 Week” value ([1]; group D, 5 mg/kg per day gavage, 5 mg/kg/day) was 19.8 ± 4.3 µg/mL, the “mALB, 26 Week” value [1, 5] was 19.9 ± 7.4 µg/mL and the “mALB, 32 Week” value [1, 5] was 105.5 ± 38.9 µg/mL. For the same compound, the “mALB, 35 Week” value [1, 5] was 52.8 ± 23.4 µg/mL, the “kidney histology, HE staining” value (rat kidney) was “some glomeruli significantly increased in size” and the “kidney histology, HE staining” value (rat kidney; listed as diazoxide) was “tubular vacuolar degeneration”.
For `CC(N/C(=N\C#N)Nc1ccncc1)C(C)(C)C` (centres unmarked) [Pinacidil], the “mALB, urine microalbumin value” value ([1]; 1 mg/kg group) was 99.7 ± 50.7 µg/mL and the “effect on reducing the amount” value [1] was “significant effect”.
